In patent US6339077B1, “Substituted 4-benzylaminoquinolines and their hetero analogs, process for their preparation, pharmaceuticals containing these compounds and use thereof” (Aventis Pharma Deutschland GmbH, priority 1999, dated 2002) one finds melting point data, which are given here for seven compounds.

Where a name gives a salt, the structure may show the parent alone.

As a reminder, the melting point is the temperature of the solid-liquid transition. As to `COC(=O)c1c(C)nc2ccc(CCC3(O)CCC4(C)C(CC(O)C5C4CC(O)C4(C)C5CC[C@@H]4C(C)CCC(=O)O)C3)cc2c1NCc1ccccc1` (stereo partly shown), the melting point was > 185 °C (dec.).
The result for `COC(=O)c1c(C)nc2cccc(C)c2c1NCc1ccc(CCC2(O)CCC3(C)C(CC(O)C4C3CC(O)C3(C)C4CC[C@@H]3C(C)CCC(=O)O)C2)cc1` (stereo partly shown) reads > 180 °C (dec.).
Under `CCc1nc2ccccc2c(NCc2ccc(CCC3(O)CCC4(C)C(CC(O)C5C4CC(O)C4(C)C5CC[C@@H]4C(C)CCC(=O)O)C3)cc2)c1C(=O)OC` (stereo partly shown) stands > 190 °C (dec.).
Compound `Cc1nc2ccccc2c(NCc2ccccc2)c1C(=O)NCCOC1CCC2(C)C(C1)CC(O)C1C2CC(O)C2(C)C1CC[C@@H]2C(C)CCC(=O)O` (stereo partly shown) yielded a melting point of 143 °C.
Under `Cc1nc2ccccc2c(NCc2ccc(C#CC3(O)CCC4(C)C(CC(O)C5C4CC(O)C4(C)C5CC[C@@H]4C(C)CCC(=O)O)C3)cc2)c1C(=O)OC(C)C` (stereo partly shown) stands 150 °C; under `COC(=O)c1c(C)nc2ccc(C#CC3(O)CCC4(C)C(CC(O)C5C4CC(O)C4(C)C5CC[C@@H]4C(C)CCC(=O)O)C3)cc2c1NCc1ccccc1` (stereo partly shown), 223 °C (dec.).
The compound `Cc1nc2ccccc2c(NCc2ccccc2)c1C(=O)NCCOC1CCC2(C)C(C1)CC(O)C1C2CC(O)C2(C)C1CC[C@@H]2C(C)CCC(=O)NCCS(=O)(=O)O` (stereo partly shown) (as salt: trifluoroacetate) showed a melting point of 180 °C.
